Source: ChEMBL document CHEMBL3885881, “DrugMatrix”

Species on record: Rattus norvegicus
Test: DrugMatrix - Regimen: Daily Repeat
Assay type: toxicity, organism-based, Sprague-Dawley
Parameters: regimen Daily Repeat, gender Male, age 6-8 weeks
Details: in vivo, po, route oral GAVAGE, vehicle .5 % CMC; for ABSOLUTE BASOPHIL / ABSOLUTE EOSINOPHIL / ABSOLUTE LYMPHOCYTE / ABSOLUTE MONOCYTE / ABSOLUTE SEGMENTED NEUTROPHIL / BASOPHIL / EOSINOPHIL / ERYTHROCYTE COUNT / HEMATOCRIT / HEMOGLOBIN / LEUKOCYTE COUNT / LYMPHOCYTE / MEAN CORPUSCULAR HEMOGLOBIN / MEAN CORPUSCULAR HEMOGLOBIN CONCENTRATION / MEAN CORPUSCULAR VOLUME / MONOCYTE / NEUTROPHIL / NUCLEATED RED BLOOD CELLS / PLATELET COUNT: tissue Blood; for ALANINE AMINOTRANSFERASE / ALBUMIN / ALKALINE PHOSPHATASE / ASPARTATE AMINOTRANSFERASE / BLOOD UREA NITROGEN / CARBON DIOXIDE / CHLORIDE / CHOLESTEROL / CREATINE PHOSPHOKINASE / CREATININE / GLUCOSE / LACTATE DEHYDROGENASE / LIPASE / PHOSPHORUS / POTASSIUM / SODIUM / TOTAL BILIRUBIN / TOTAL PROTEIN / URIC ACID: tissue Plasma
[1] = 30 mg/kg, 72 h, dose level Low, time 3 day
[2] = 30 mg/kg, 120 h, dose level Low, time 5 day
[3] = 570 mg/kg, 72 h, dose level High, time 3 day
[4] = 570 mg/kg, 120 h, dose level High, time 5 day

SMILES: O=C(O)COc1ccc(C(=O)c2cccs2)c(Cl)c1Cl
- ABSOLUTE BASOPHIL [1]: 0 CELLS/uL
- ABSOLUTE EOSINOPHIL [1]: 0 CELLS/uL
- ABSOLUTE LYMPHOCYTE [1]: 7024 CELLS/uL
- ABSOLUTE MONOCYTE [1]: 269 CELLS/uL
- ABSOLUTE SEGMENTED NEUTROPHIL [1]: 840.33 CELLS/uL
- BASOPHIL [1]: 0%
- EOSINOPHIL [1]: 0%
- ERYTHROCYTE COUNT [1]: 5.29 x10E6/uL
- HEMATOCRIT [1]: 33.2%
- HEMOGLOBIN [1]: 12.83 G/DL
- LEUKOCYTE COUNT [1]: 8.13 x10E3/uL
- LYMPHOCYTE [1]: 86.33%
- MEAN CORPUSCULAR HEMOGLOBIN [1]: 24.27 pg
- MEAN CORPUSCULAR HEMOGLOBIN CONCENTRATION [1]: 38.67 G/DL
- MEAN CORPUSCULAR VOLUME [1]: 62.8 fL
- MONOCYTE [1]: 3%
- NEUTROPHIL [1]: 10.67%
- NUCLEATED RED BLOOD CELLS [1]: 0.67 /100WBC
- PLATELET COUNT [1]: 1021.33 x10E3/uL
- ALANINE AMINOTRANSFERASE [1]: 60.33 u/L
- ALBUMIN [1]: 4.17 G/DL
- ALKALINE PHOSPHATASE [1]: 394.67 u/L
- ASPARTATE AMINOTRANSFERASE [1]: 94.33 u/L
- BLOOD UREA NITROGEN [1]: 14.67 mg/dL
- CARBON DIOXIDE [1]: 33.67 mmol/L
- CHLORIDE [1]: 99.67 MEQ/L
- CHOLESTEROL [1]: 74 mg/dL
- CREATINE PHOSPHOKINASE [1]: 524.67 u/L
- CREATININE [1]: 0.26 mg/dL
- GLUCOSE [1]: 144.67 mg/dL
- LACTATE DEHYDROGENASE [1]: 159 u/L
- LIPASE [1]: 9.33 u/L
- PHOSPHORUS [1]: 12.93 mg/dL
- POTASSIUM [1]: 6.21 MEQ/L
- SODIUM [1]: 144.4 MEQ/L
- TOTAL BILIRUBIN [1]: 0.17 mg/dL
- TOTAL PROTEIN [1]: 6.2 G/DL
- URIC ACID [1]: 0.5 mg/dL
- ABSOLUTE BASOPHIL [2]: 0 CELLS/uL
- ABSOLUTE EOSINOPHIL [2]: 52.67 CELLS/uL
- ABSOLUTE LYMPHOCYTE [2]: 10475.33 CELLS/uL
- ABSOLUTE MONOCYTE [2]: 92 CELLS/uL
- ABSOLUTE SEGMENTED NEUTROPHIL [2]: 1380 CELLS/uL
- BASOPHIL [2]: 0%
- EOSINOPHIL [2]: 0.33%
- ERYTHROCYTE COUNT [2]: 5.51 x10E6/uL
- HEMATOCRIT [2]: 35.03%
- HEMOGLOBIN [2]: 13.53 G/DL
- LEUKOCYTE COUNT [2]: 12 x10E3/uL
- LYMPHOCYTE [2]: 87.67%
- MEAN CORPUSCULAR HEMOGLOBIN [2]: 24.53 pg
- MEAN CORPUSCULAR HEMOGLOBIN CONCENTRATION [2]: 38.63 G/DL
- MEAN CORPUSCULAR VOLUME [2]: 63.57 fL
- MONOCYTE [2]: 0.67%
- NEUTROPHIL [2]: 11.33%
- NUCLEATED RED BLOOD CELLS [2]: 0 /100WBC
- PLATELET COUNT [2]: 1276 x10E3/uL
- ALANINE AMINOTRANSFERASE [2]: 51 u/L
- ALBUMIN [2]: 4.23 G/DL
- ALKALINE PHOSPHATASE [2]: 420.67 u/L
- ASPARTATE AMINOTRANSFERASE [2]: 78.33 u/L
- BLOOD UREA NITROGEN [2]: 13 mg/dL
- CARBON DIOXIDE [2]: 35.67 mmol/L
- CHLORIDE [2]: 97.33 MEQ/L
- CHOLESTEROL [2]: 80 mg/dL
- CREATINE PHOSPHOKINASE [2]: 446.67 u/L
- CREATININE [2]: 0.27 mg/dL
- GLUCOSE [2]: 136 mg/dL
- LACTATE DEHYDROGENASE [2]: 169.67 u/L
- LIPASE [2]: 8.33 u/L
- PHOSPHORUS [2]: 12.7 mg/dL
- POTASSIUM [2]: 6.46 MEQ/L
- SODIUM [2]: 142.87 MEQ/L
- TOTAL BILIRUBIN [2]: 0.2 mg/dL
- URIC ACID [2]: 0.8 mg/dL
- ABSOLUTE BASOPHIL [3]: 0 CELLS/uL
- ABSOLUTE EOSINOPHIL [3]: 0 CELLS/uL
- ABSOLUTE LYMPHOCYTE [3]: 14484.67 CELLS/uL
- ABSOLUTE MONOCYTE [3]: 271.67 CELLS/uL
- ABSOLUTE SEGMENTED NEUTROPHIL [3]: 1143.67 CELLS/uL
- BASOPHIL [3]: 0%
- EOSINOPHIL [3]: 0%
- ERYTHROCYTE COUNT [3]: 5.25 x10E6/uL
- HEMATOCRIT [3]: 32.4%
- HEMOGLOBIN [3]: 12.33 G/DL
- LEUKOCYTE COUNT [3]: 15.9 x10E3/uL
- LYMPHOCYTE [3]: 91.33%
- MEAN CORPUSCULAR HEMOGLOBIN [3]: 23.47 pg
- MEAN CORPUSCULAR HEMOGLOBIN CONCENTRATION [3]: 38.03 G/DL
- MEAN CORPUSCULAR VOLUME [3]: 61.6 fL
- MONOCYTE [3]: 1.67%
- NEUTROPHIL [3]: 7%
- NUCLEATED RED BLOOD CELLS [3]: 0 /100WBC
- PLATELET COUNT [3]: 1320.33 x10E3/uL
- ALANINE AMINOTRANSFERASE [3]: 61.67 u/L
- ALBUMIN [3]: 4.03 G/DL
- ALKALINE PHOSPHATASE [3]: 478 u/L
- ASPARTATE AMINOTRANSFERASE [3]: 93 u/L
- BLOOD UREA NITROGEN [3]: 14.67 mg/dL
- CARBON DIOXIDE [3]: 35.67 mmol/L
- CHLORIDE [3]: 97 MEQ/L
- CHOLESTEROL [3]: 89.67 mg/dL
- CREATINE PHOSPHOKINASE [3]: 605.33 u/L
- CREATININE [3]: 0.23 mg/dL
- GLUCOSE [3]: 141.33 mg/dL
- LACTATE DEHYDROGENASE [3]: 128 u/L
- LIPASE [3]: 9 u/L
- PHOSPHORUS [3]: 10.17 mg/dL
- POTASSIUM [3]: 5.26 MEQ/L
- SODIUM [3]: 142.77 MEQ/L
- TOTAL BILIRUBIN [3]: 0.2 mg/dL
- TOTAL PROTEIN [3]: 6.27 G/DL
- URIC ACID [3]: 0.47 mg/dL
- ABSOLUTE BASOPHIL [4]: 0 CELLS/uL
- ABSOLUTE EOSINOPHIL [4]: 0 CELLS/uL
- ABSOLUTE LYMPHOCYTE [4]: 19963.33 CELLS/uL
- ABSOLUTE MONOCYTE [4]: 319.33 CELLS/uL
- ABSOLUTE SEGMENTED NEUTROPHIL [4]: 2417.33 CELLS/uL
- BASOPHIL [4]: 0%
- EOSINOPHIL [4]: 0%
- ERYTHROCYTE COUNT [4]: 5.25 x10E6/uL
- HEMATOCRIT [4]: 32.67%
- HEMOGLOBIN [4]: 12.47 G/DL
- LEUKOCYTE COUNT [4]: 22.7 x10E3/uL
- LYMPHOCYTE [4]: 88.33%
- MEAN CORPUSCULAR HEMOGLOBIN [4]: 23.73 pg
- MEAN CORPUSCULAR HEMOGLOBIN CONCENTRATION [4]: 38.17 G/DL
- MEAN CORPUSCULAR VOLUME [4]: 62.33 fL
- MONOCYTE [4]: 1.33%
- NEUTROPHIL [4]: 10.33%
- NUCLEATED RED BLOOD CELLS [4]: 0 /100WBC
- PLATELET COUNT [4]: 1428 x10E3/uL
- ALANINE AMINOTRANSFERASE [4]: 48 u/L
- ALBUMIN [4]: 4.13 G/DL
- ALKALINE PHOSPHATASE [4]: 359.33 u/L
- ASPARTATE AMINOTRANSFERASE [4]: 74 u/L
- BLOOD UREA NITROGEN [4]: 15.67 mg/dL
- CARBON DIOXIDE [4]: 34.33 mmol/L
- CHLORIDE [4]: 100 MEQ/L
- CHOLESTEROL [4]: 70.33 mg/dL
- CREATINE PHOSPHOKINASE [4]: 268.67 u/L
- CREATININE [4]: 0.29 mg/dL
- GLUCOSE [4]: 144 mg/dL
- LACTATE DEHYDROGENASE [4]: 153.33 u/L
- LIPASE [4]: 6.67 u/L
- PHOSPHORUS [4]: 11 mg/dL
- POTASSIUM [4]: 6.13 MEQ/L
- SODIUM [4]: 144.77 MEQ/L
- TOTAL BILIRUBIN [4]: 0.2 mg/dL
- TOTAL PROTEIN [4]: 6.1 G/DL
- URIC ACID [4]: 1.3 mg/dL
